The term solubility denotes the concentration that dissolves in the medium under given conditions. Low readings indicate a poorly soluble substance, high ones a readily soluble substance. The term IC50 denotes the concentration at which inhibition is half-maximal.

This note sets out measurements from publication PMC10342533, “Novel Tetrazole Derivatives Targeting Tubulin Endowed with Antiproliferative Activity against Glioblastoma Cells” (International Journal of Molecular Sciences, 2023).

Data set [1] can be described thus: Aqueous solubility, shake-flask method, phosphate buffer pH 7.4. The class given is physicochemical. Particulars: thermodynamic from solid, phosphate buffer pH 7.4, shake-flask, mean ± SD of three experiments. Summed up: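 Saturation shake-flask: 5 mg compound suspended in 500 µL phosphate buffer pH 7.4, shaken 72 h at room temperature, filtered. Dissolved concentration by UV absorbance at λmax against per-compound calibration lines; mean of three independent experiments.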

The subject of data set [2] is HT-29 (colon adenocarcinoma). Briefly: Cell growth inhibition, MTT assay, HT-29, without or with verapamil. The class given is cell-based, human. (Formazan colour is commonly taken as a measure of viable cells.)
Data set [3] relates to microtubule network of HeLa cells. Briefly: Immunofluorescence confocal microscopy of microtubule network, HeLa. The data set is classed as cell-based, human. The following applies: 24 h, 100 nM, α-tubulin immunofluorescence. The method, then:
(§1) To elucidate if the interaction of the compounds with tubulin inferred from the in vitro TPI experiments has consequences on cellular microtubules, we studied the effect of representative compounds on the microtubule network of HeLa, MCF7, and U87 MG cells 24 h after treatment via the use of immunofluorescence confocal microscopy through α-tubulin and nuclei labeling.
(§2) HeLa, MCF7, and U87 MG cells (8·10^4 cells/mL) were grown on 0.01% poly-L-lysine pre-coated square glass coverslips (22 mm^2), deposited on 6-well plates (1 coverslip/well), and incubated in complete DMEM medium (see above) at 37 °C and 5% CO2 atmosphere for 24 h. Then, the cells were incubated for 24 h in the presence or absence (negative controls) of selected compounds (10, 12, or 14) at 100 nM. After drug treatment incubation, medium was removed, and coverslips were washed three times with PBS, fixed with 4% formaldehyde in PBS for 10 min, permeabilized with 0.5% Triton X-100, (Sigma-Aldrich, St. Louis, MO, USA) in PBS for 90 s at 4 °C, blocked with 10% BSA in PBS for 30 min, and washed with PBS four times. The coverslips were incubated for 1 h with anti-α-tubulin mouse monoclonal antibody (Sigma-Aldrich, St. Louis, MO, USA), diluted 1:200 in PBS containing 3% BSA, washed four times with PBS, and then incubated in darkness with the fluorescent secondary antibody Alexa Fluor 488 goat anti-mouse IgG (Molecular Probes, Invitrogen, Eugenen, OR, USA) and diluted 1:400 in PBS containing 1% BSA for 1.5 h. The coverslips were washed four times with PBS, and a drop of ProLong™ Gold Antifade Mountant containing DAPI (ThermoFisher, Waltham, MA, USA) was added for cell nuclei staining. The samples were analyzed via confocal microscopy, which was performed by using a LEICA SP5 microscope DMI-6000V model coupled to a LEICA LAS AF software computer.

For data set [4], the system named is microtubule network of U87 MG cells. Briefly: Immunofluorescence confocal microscopy of microtubule network, U87 MG. The following applies: 24 h, 100 nM, α-tubulin immunofluorescence. The class given is cell-based, human. The method, then: as §1, §2
In data set [5] the test system is HepG2 (hepatocellular carcinoma). Briefly: Cell growth inhibition, MTT assay, HepG2. Particulars: Homo sapiens. The class given is cell-based.
The subject of the next data set is U87 MG cells. As to the kind of experiment: Apoptotic cell death quantification, Annexin V-FITC/PI, U87 MG. The data set is classed as cell-based, human. Particulars: 72 h, 100 nM; for Necrotic cells: PI+ AnV−; for Live cells: PI− AnV−. The procedure: To characterize the cell death mechanism induced by the representative compounds 10, 12, or 14 at 100 nM on HeLa, MCF7, and U87 MG cells, dual-channel flow cytometry studies were carried out for cells in the absence (negative control) or presence of compounds 72 h after treatment. Fluorescein isothiocyanate-labeled Annexin V (FITC-AnV) and propidium iodide (PI) were used for double staining. Regarding their response to AnV and PI, cells can be identified as viable (PI−, AnV−), early apoptotic (PI−, AnV+), late apoptotic or secondary necrotic (PI+, AnV+), or necrotic (PI+, AnV−). The translocation of the phosphatidylserine from the inner to the outer cell membrane causes the response of apoptotic cells to AnV, whereas only cells suffering some kind of membrane disintegration (late apoptotic or necrotic cells) allow PI permeation.
Following the manufacturer’s guidelines, an Annexin V-FITC/PI apoptosis detection kit (Immunostep, Salamanca, Spain) was used to quantify HeLa, MCF7, or U87 MG cells. Cells were seeded in 12-well plates (5·10^4 cells/mL, 1 mL/well) and incubated in complete DMEM medium (see above) at 37 °C and 5% CO2 atmosphere for 24 h. Then, the cells were treated with selected compounds (10, 12, or 14) at 100 nM, and untreated cells were used as negative controls. Then, 72 h after incubation, the cells were harvested, centrifugated, resuspended in the Annexin V binding buffer, and incubated in darkness with Annexin V-FITC/PI for 15 min at room temperature. The samples were analyzed by using a BD Accuri™ C6 Plus Flow Cytometer (BD Biosciences), and acquired data were analyzed via BD Accuri™ C6 Software (version 1.0.264.21).

Where [6] appears, read: Homo sapiens, HT-29, 72 h after drug exposure.
The mark [7] stands for this setting: Homo sapiens, HT-29, mean ± SD, Table S1.
The mark [8] stands for this setting: mean ± SD, Table S1, in the presence of verapamil (10 µM).

In brackets after ≈: the same amount, converted by molar mass.

Turning to `CSc1cc(-c2nnnn2-c2ccc3c(ccn3C)c2)cc(Cl)n1` [Compound 10, 5-(5-(2-chloro-6-(methylsulfanyl)pyridin-4-yl)-1H-tetrazol-1-yl)-1-methyl-1H-indole], in data set [1], the solubility at 72 h was 26.1 ± 0.2 µg/mL (≈ 73.1 µM). The IC50 in data set [2] (setting [6]) worked out at 59 nM; in data set [2] (setting [7]) it was 59.4 ± 0.5 nM; in data set [2] (setting [8]), 61.4 ± 0.4 nM; in data set [5] (72 h after drug exposure), 37 nM; in data set [5] (mean ± SD, Table S1), 37.1 ± 0.2 nM. The “effect on microtubule network” value in data set [3] and in data set [4] was “severe microtubule network disruption” each time. For the same molecule, the apoptotic response in the data set on U87 MG cells is 70–74%. Moreover, the Necrotic cells in the data set on U87 MG cells was 15–19%. In addition, the Live cells in the data set with U87 MG cells is 9–15%.
For `Cn1cc(C=O)c2cc(-n3nnnc3-c3cc(Cl)nc(Cl)c3)ccc21` [Compound 12, 5-(5-(2,6-dichloropyridin-4-yl)-1H-tetrazol-1-yl)-1-methyl-1H-indole-3-carbaldehyde], the solubility at 72 h in data set [1] worked out at 33.1 ± 0.3 µg/mL (≈ 88.7 µM). Further, the IC50 is 51 nM in data set [2] (setting [6]); 51.3 ± 0.3 nM in data set [2] (setting [7]); 56.5 ± 0.5 nM in data set [2] (setting [8]); 36 nM in data set [5] (72 h after drug exposure); 36.4 ± 0.2 nM in data set [5] (mean ± SD, Table S1). Also, the “effect on microtubule network” value in data set [3] and in data set [4] was “severe microtubule network disruption” throughout. Further, the apoptotic response in the data set on U87 MG cells was 70–74%. Also, the Necrotic cells with U87 MG cells is recorded as 15–19%. Besides, in the data set on U87 MG cells, the Live cells is listed as 9–15%.
Molecule `CSc1cc(-c2nnnn2-c2ccc3c(c2)c(C=O)cn3C)cc(Cl)n1` [Compound 14, 5-(5-(2-chloro-6-(methylsulfanyl)pyridin-4-yl)-1H-tetrazol-1-yl)-1-methyl-1H-indole-3-carbaldehyde] yielded a solubility at 72 h in data set [1] of 36.9 ± 0.3 µg/mL (≈ 95.9 µM). For the same molecule, the IC50 amounted to 31 nM in data set [2] (setting [6]); 31.1 ± 0.3 nM in data set [2] (setting [7]); 33.1 ± 0.4 nM in data set [2] (setting [8]); 31 nM in data set [5] (72 h after drug exposure); 31.1 ± 0.3 nM in data set [5] (mean ± SD, Table S1). Further, the “effect on microtubule network” value in data set [3] and in data set [4] was “severe microtubule network disruption” each time. Further, in the data set with U87 MG cells, the apoptotic response is reported as 70–74%. For the same molecule, in the data set with U87 MG cells, the Necrotic cells was 15–19%. Besides, the Live cells with U87 MG cells is recorded as 9–15%.
